Data on 7 molecules can be found in article doi:10.1101/2024.05.30.596569v1 (bioRxiv, 2024).

Values after ≈ are worked out from the molar mass of the structure shown.

One data set has as its system E.c K0416. Kind of data set: microbe, parasite or virus in culture. The following applies: Escherichia coli, K0416, read-out: Minimum inhibitory concentration, E.c K0416.
The next data set relates to E.c ATCC25922 ΔTolC. The conditions noted are these: Table S3, triplicate.
The conditions of data set [1]: pH 7.4.
The subject of a further data set is A. baumannii ATCC 19606. The conditions noted are these: Mueller Hinton II broth, 5 × 10^5 cells mL^−1, 18h, turbidity 600 nm, triplicate.
Another data set has as its system P. aeruginosa strains. The conditions noted are these: cited from earlier work.

For `O=C(O)c1cn(C2CC2)c2cc(N3CCNCC3)c(F)cc2c1=O` [CIP, ciprofloxacin], the MIC in the data set with E.c K0416 is above 0.5 µg/mL.

For the molecule `CC(C)(O/N=C(\C(=O)N[C@@H]1C(=O)N2C(C(=O)[O-])=C(C[n+]3ccccc3)CS[C@H]12)c1csc(N)n1)C(=O)O` [CZA, ceftazidime], the MIC with E.c K0416 worked out at 64 µg/mL (≈ 117 µM).

In the case of `CNC(C)C1CCC(N)C(OC2C(N)CC(N)C(OC3OCC(C)(O)C(NC)C3O)C2O)O1` (stereo not drawn) [GEN, gentamicin], the “Minimum inhibitory concentration, E.c ATCC25922 ΔTolC” value with E.c ATCC25922 ΔTolC amounted to 0.5 µg/mL (≈ 1.05 µM). The MIC in the data set with E.c K0416 amounted to 4 µg/mL (≈ 8.38 µM).

Regarding `CC(C)NCC(O)COc1cccc2ccccc12` (stereo not drawn) [Propranolol], in the data set on Caco-2 cells, the “A-B permeability (Caco-2)” value was 38.0 10^-6 cm s^-1 and the “B-A permeability (Caco-2)” value was 17.2 10^-6 cm s^-1.

Consider `CO[C@H]1/C=C/O[C@@]2(C)Oc3c(C)c(O)c4c(O)c(c(/C=N/N5CCN(C)CC5)c(O)c4c3C2=O)NC(=O)/C(C)=C\C=C\[C@H](C)[C@H](O)[C@@H](C)[C@@H](O)[C@@H](C)[C@H](OC(C)=O)[C@@H]1C` [Rifampicin], for which the “Distribution coefficient (log D), logD7.4” value in data set [1] was 1.12.

For the molecule `C[C@@H](O)[C@H](NC(=O)[C@H]1NC(=O)[C@H]([C@@H](C)O)NC(=O)[C@H]2NC(=O)[C@H](CC(N)=O)NC(=O)[C@@H](N)Cc3c[nH]c4c(cccc34)OC2c2c[nH]c3cc(ccc23)C1CCCN)C(=O)N[C@@H](Cc1ccccc1)C(=O)O` (stereo partly drawn) [WNWTKTF], the “Minimum inhibitory concentration, Ab ATCC 19606” value with A. baumannii ATCC 19606 is recorded as “no activity against A. baumannii”.

For the molecule murepavadin, the “MIC90 against P. aeruginosa strains” value with P. aeruginosa strains is 0.12 µg/mL.
